Reference: patent publication US20040005311A1, “Dietary supplement compositions” (priority 2003, published 2004)

Test system: Alzheimer's disease-related / dementia-related symptoms
Assay: Dietary supplementation of dementia subjects (case accounts by caregiver and physician)
Type: in vivo, human
Conditions: Subject #3; diet also supplemented with yellow corn, pineapple and tomato sauce products
Experimental: Prior to addressing the patient's dementia problem, a complete diagnosis of the subject was performed by a qualified physician.
The diets of these four subjects were also supplemented, to varying degrees, with yellow corn, pineapple and tomato sauce products.

CC(C)=CCC/C(C)=C/C=C/C(C)=C/C=C/C(C)=C/C=C/C=C(C)/C=C/C=C(C)/C=C/C=C(\C)CCC=C(C)C [lycopene]
symptoms (memory loss, anxiety, eating less): still exhibiting reduced symptoms
